Earlier results as cited in patent US20110165699A1 (priority 2009, published 2011).

CCc1c2c(nc3ccc(O)cc13)-c1cc3c(c(=O)n1C2)COC(=O)[C@]3(O)CC [SN-38, 7-ethyl-10-hydroxy-camptotheen]
inter-patient variability, CV in AUCs (Sasaki, Jpn. J. Cancer 1995): 38.91% | intra- and inter-individual pharmacokinetic variability (has been reported): more than 40 fold
